These results are taken from paper PMC6667231 (International journal of nutrition, 2019).

What is called IC50 is the concentration that gives 50% inhibition.

The target in the first experiment is T1, CDK4/Cyclin D1 (Homo sapiens, UniProt P11802). In words: cell-free […]-ATP kinase assay, P81 phosphocellulose plate.
T1 sequence (P11802 2-303): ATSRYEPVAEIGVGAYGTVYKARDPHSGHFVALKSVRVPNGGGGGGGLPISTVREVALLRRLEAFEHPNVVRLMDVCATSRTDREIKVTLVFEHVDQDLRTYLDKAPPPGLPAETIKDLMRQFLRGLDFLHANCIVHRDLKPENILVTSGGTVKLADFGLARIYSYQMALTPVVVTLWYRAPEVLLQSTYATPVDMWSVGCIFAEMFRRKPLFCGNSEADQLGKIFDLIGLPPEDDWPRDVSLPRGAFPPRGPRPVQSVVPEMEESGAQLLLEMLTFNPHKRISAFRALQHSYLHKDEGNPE
T1 sequence (P24385 whole entry partner): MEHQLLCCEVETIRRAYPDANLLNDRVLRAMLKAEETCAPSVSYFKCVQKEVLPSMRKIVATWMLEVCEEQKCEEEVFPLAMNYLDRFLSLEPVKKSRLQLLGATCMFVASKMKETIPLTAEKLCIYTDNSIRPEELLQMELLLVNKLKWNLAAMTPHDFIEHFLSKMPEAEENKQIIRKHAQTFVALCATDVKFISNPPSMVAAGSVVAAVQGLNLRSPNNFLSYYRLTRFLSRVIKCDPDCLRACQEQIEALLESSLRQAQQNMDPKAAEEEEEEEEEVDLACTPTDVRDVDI
Conditions: not given
It is filed as biochemical.
In turn, `COc1c(O)cc2oc3cc4c(c(O)c3c(=O)c2c1CC=C(C)C)CCC(C)(C)O4` [3-isomangostin] returned an IC50 of 15.6 µM.
On the same count and under the same terms, in the case of `COc1c(O)cc2oc3cc(O)c(CC=C(C)C)c(O)c3c(=O)c2c1CCC(C)(C)O` [garcinone D] it was 12.8 µM; in that of `COc1c(O)cc2oc3cc(O)c(CC=C(C)C)c(O)c3c(=O)c2c1CC=C(C)C` [α-mangostin], 8.5 µM; in that of `CC(C)=CCc1c(O)cc2oc3cc(O)c(O)c(CC=C(C)C)c3c(=O)c2c1O` [γ-mangostin], 6.2 µM.

The target in a further experiment is T1, CDK4/Cyclin D1. The experiment is described as above. It is filed as biochemical. Particulars: read-out: 40 μM.
For `CC(C)=CCc1c(O)c(CC=C(C)C)c2oc3c(O)cccc3c(=O)c2c1O` [8-desoxygartanin], the activity at 40 µM worked out at 81.4 ± 6.38%.
The same measure, in the same setting: with `CC(C)=CCc1c(O)cc2oc3cc(O)c(O)c(CCC(C)(C)O)c3c(=O)c2c1O` [garcinone C] the figure was 65.7 ± 7.94%; with `CC(C)=CCc1c(O)c(CC=C(C)C)c2oc3c(O)ccc(O)c3c(=O)c2c1O` [gartanin], 80.2 ± 10.2%.
The same measure, in the same setting: in the case of `COc1cc2oc3cc(O)c(OC)c(CC=C(C)C)c3c(=O)c2c(O)c1CC=C(C)C` [β-mangostin] it was 55 ± 2.88%.
